Results from patent US12071408B2, “Multi-targeted tyrosine kinase inhibitors effective in antitumor uses” (Shanghai AB PharmaTech Ltd., priority 2021, dated 2024).
Read-outs that look alike come from different tables or passages of the source.

How the values were obtained:
[1] = target: C-MET (Homo sapiens (Human), UniProt P08581); assay: Kinase inhibition, Mobility-Shift Assay; format: biochemical; details: class; read-out: C-MET range of activity (IC50)
[2] = tested on: leukemia cell line (K562); assay: Tumor cell proliferation inhibition (CTG, 72 h); format: cell-based; details: K562 cells, class, read-out: K562 activity effect range (IC50)
[3] = tested on: bladder cancer cell line (RT112/84); assay: Tumor cell proliferation inhibition (CTG, 72 h); format: cell-based; details: RT112/84 cells, class, read-out: RT112/84 range of activity (IC50)
[4] = target: VEGFR-2 (KDR) (Homo sapiens (Human), UniProt P35968); assay: Kinase inhibition, Mobility-Shift Assay; format: biochemical; details: class; read-out: KDR activity effect range (IC50)
[5] = target: FGFR4 (Homo sapiens (Human), UniProt P22455); assay: Kinase inhibition, Mobility-Shift Assay; format: biochemical; details: class; read-out: FGFR4 range of activity effects (IC50)
[6] = target: FGFR2 (Homo sapiens (Human), UniProt P21802); assay: Kinase inhibition, Mobility-Shift Assay; format: biochemical; details: class; read-out: FGFR2 range of activity effects (IC50)
[7] = target: EGFR (Homo sapiens (Human), UniProt P00533); assay: Kinase inhibition, Mobility-Shift Assay; format: biochemical; details: class; read-out: EGFR range of activity (IC50)
[8] = tested on: hepatocellular carcinoma cell line (Hep3B 2.1-7); assay: Tumor cell proliferation inhibition (CTG, 72 h); format: cell-based; details: Hep3B 2.1-7 cells, class, read-out: Hep3B 2.1-7 range of activity (IC50)
[9] = tested on: thyroid cancer cell line (TT); assay: Tumor cell proliferation inhibition (CTG, 72 h); format: cell-based; details: TT cells, class, read-out: TT range of activity (IC50)
[10] = tested on: cervical cancer cell line (Hela); assay: Tumor cell proliferation inhibition (CTG, 72 h); format: cell-based; details: Hela cells, class, read-out: Hela activity effect range (IC50)

EGFR, sequence (P00533 25-1210): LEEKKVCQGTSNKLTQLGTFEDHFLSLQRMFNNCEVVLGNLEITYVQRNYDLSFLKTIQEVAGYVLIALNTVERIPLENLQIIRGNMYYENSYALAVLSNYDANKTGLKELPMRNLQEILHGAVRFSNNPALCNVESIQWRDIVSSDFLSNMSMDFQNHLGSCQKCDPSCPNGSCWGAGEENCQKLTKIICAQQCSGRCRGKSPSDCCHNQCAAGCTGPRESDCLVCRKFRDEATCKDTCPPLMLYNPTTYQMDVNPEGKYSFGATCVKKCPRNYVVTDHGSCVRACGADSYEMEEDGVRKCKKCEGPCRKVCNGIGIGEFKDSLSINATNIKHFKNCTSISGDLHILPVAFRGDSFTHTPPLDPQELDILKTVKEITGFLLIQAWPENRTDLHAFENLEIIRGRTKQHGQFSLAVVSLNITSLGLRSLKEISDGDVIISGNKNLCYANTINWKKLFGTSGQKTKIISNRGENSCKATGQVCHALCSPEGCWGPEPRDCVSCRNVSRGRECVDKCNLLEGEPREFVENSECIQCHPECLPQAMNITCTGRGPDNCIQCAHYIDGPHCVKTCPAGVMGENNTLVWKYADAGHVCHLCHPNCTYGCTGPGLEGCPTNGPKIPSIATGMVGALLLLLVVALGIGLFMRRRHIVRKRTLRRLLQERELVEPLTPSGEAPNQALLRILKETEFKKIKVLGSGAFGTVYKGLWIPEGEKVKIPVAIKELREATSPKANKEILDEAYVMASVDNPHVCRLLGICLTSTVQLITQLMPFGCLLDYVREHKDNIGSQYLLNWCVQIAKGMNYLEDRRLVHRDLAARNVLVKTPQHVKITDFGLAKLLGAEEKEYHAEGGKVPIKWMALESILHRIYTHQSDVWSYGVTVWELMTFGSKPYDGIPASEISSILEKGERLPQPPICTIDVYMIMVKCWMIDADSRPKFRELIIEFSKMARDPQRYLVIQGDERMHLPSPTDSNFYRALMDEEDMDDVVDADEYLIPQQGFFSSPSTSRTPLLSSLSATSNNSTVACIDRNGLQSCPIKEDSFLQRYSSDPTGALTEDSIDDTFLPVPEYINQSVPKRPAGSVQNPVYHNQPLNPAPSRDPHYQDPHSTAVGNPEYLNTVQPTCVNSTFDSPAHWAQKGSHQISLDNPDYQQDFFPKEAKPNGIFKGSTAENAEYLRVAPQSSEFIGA
C-MET, sequence (P08581 25-1390): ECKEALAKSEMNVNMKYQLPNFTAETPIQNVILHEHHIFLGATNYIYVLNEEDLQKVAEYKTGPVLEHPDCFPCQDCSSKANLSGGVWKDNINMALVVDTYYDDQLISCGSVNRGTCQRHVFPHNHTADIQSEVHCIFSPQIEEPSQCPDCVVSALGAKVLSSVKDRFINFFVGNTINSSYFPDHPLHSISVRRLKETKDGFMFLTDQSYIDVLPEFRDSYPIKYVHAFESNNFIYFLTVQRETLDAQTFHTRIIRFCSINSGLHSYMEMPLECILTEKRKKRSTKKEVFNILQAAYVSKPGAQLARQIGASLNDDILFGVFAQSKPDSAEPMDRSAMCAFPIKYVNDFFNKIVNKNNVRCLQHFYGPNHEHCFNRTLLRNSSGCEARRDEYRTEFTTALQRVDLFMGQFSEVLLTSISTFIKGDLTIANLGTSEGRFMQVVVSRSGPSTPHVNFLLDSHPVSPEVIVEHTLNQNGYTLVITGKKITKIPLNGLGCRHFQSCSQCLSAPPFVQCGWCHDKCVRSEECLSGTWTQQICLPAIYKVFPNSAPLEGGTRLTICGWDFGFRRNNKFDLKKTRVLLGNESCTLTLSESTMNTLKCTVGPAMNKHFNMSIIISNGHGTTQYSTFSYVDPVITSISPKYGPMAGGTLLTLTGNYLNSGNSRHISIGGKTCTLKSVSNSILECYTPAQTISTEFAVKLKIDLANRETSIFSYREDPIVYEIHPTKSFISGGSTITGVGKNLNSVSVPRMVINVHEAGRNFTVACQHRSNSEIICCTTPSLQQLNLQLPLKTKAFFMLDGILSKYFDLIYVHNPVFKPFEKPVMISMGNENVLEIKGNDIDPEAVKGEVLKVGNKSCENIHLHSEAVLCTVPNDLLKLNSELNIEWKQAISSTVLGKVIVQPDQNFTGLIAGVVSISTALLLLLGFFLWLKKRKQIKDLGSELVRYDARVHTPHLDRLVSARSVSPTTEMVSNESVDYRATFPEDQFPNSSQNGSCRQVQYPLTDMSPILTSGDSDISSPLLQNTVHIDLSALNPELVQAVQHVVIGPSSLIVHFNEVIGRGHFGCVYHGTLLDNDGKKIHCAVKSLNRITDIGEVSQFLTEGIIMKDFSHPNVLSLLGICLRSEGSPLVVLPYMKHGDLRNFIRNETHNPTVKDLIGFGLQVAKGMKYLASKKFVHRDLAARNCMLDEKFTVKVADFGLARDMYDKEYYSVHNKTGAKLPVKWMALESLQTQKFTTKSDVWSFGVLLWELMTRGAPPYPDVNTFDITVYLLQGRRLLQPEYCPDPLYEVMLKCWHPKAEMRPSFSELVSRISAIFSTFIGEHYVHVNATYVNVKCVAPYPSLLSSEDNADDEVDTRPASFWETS
FGFR4, sequence (P22455 22-802): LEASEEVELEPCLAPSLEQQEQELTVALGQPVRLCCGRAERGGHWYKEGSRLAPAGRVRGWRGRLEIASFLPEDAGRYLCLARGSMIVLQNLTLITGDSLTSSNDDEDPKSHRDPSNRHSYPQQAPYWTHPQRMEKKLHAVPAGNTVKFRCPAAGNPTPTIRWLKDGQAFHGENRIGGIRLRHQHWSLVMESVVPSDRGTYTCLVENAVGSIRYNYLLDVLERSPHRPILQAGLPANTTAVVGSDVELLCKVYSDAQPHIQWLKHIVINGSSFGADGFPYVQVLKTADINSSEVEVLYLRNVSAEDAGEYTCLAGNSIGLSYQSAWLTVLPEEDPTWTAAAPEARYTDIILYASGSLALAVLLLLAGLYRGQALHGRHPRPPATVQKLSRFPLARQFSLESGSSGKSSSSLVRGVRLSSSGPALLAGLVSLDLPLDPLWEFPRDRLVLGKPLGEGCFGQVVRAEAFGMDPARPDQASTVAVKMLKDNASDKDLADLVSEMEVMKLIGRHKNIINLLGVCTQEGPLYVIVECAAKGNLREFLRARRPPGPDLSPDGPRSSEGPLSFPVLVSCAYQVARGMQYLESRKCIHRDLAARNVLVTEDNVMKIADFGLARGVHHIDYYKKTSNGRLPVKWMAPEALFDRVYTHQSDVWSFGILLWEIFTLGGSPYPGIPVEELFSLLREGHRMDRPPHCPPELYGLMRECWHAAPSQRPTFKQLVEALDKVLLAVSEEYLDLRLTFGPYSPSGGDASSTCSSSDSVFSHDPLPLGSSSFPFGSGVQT
FGFR2, sequence (P21802 22-821): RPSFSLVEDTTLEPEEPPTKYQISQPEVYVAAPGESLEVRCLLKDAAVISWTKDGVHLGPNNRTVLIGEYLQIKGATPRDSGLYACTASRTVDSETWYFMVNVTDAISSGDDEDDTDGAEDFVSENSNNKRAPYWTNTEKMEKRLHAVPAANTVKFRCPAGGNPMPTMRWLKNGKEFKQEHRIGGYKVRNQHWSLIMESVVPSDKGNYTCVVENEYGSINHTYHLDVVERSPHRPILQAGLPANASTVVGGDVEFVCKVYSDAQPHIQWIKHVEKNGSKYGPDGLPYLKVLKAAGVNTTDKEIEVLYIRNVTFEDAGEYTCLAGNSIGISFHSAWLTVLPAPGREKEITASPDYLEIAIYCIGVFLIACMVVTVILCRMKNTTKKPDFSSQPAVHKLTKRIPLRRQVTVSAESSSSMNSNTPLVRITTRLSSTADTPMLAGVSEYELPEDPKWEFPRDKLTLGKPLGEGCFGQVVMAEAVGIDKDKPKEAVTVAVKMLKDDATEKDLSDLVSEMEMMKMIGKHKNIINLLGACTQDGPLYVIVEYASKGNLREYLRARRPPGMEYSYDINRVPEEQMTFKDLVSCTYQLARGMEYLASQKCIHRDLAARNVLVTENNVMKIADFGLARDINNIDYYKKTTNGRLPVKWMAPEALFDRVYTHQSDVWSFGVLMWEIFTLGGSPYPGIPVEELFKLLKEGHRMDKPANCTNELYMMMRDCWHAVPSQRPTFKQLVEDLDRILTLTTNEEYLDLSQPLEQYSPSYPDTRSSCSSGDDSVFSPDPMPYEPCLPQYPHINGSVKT

SMILES	IC50 [1]	IC50 ([2]; Homo sapiens)	IC50 ([3]; Homo sapiens)	IC50 [4]	IC50 [5]	IC50 [6]	IC50 [7]	IC50 ([8]; Homo sapiens)	IC50 ([9]; Homo sapiens)	IC50 ([10]; Homo sapiens)	IC50 [2]	IC50 [3]	IC50 [8]	IC50 [9]	IC50 [10]
COc1cc2nccc(Oc3c(F)cc(NC(=O)NC4CCOCC4)c(Cl)c3F)c2cc1C(N)=O [III-28]	> 100 nM	> 10000 nM	> 1000 nM	> 10 nM	> 100 nM	> 100 nM	> 100 nM	> 5000 nM	> 10000 nM	> 10000 nM	–	–	–	–	–
COc1cc2nccc(Oc3c(F)cc(NC(=O)NC4CC(O)C4)c(Cl)c3F)c2cc1C(N)=O (stereo not drawn) [III-29]	> 100 nM	> 10000 nM	> 1000 nM	> 10 nM	> 100 nM	> 100 nM	> 100 nM	> 5000 nM	> 10000 nM	> 10000 nM	–	–	–	–	–
COc1cc2nccc(Oc3c(F)cc(NC(=O)NC4CC(O)C4)c(Cl)c3F)c2cc1C(N)=O (stereo not drawn) [III-30]	> 100 nM	–	–	> 10 nM	> 100 nM	> 100 nM	> 100 nM	–	–	–	> 10000 nM	> 1000 nM	> 5000 nM	> 10000 nM	> 10000 nM
COc1cc2nccc(Oc3c(F)cc(NC(=O)N4CC[C@H](O)C4)c(Cl)c3F)c2cc1C(N)=O [III-31]	> 100 nM	> 10000 nM	> 1000 nM	> 10 nM	> 100 nM	> 100 nM	> 100 nM	> 5000 nM	> 10000 nM	> 10000 nM	–	–	–	–	–
COc1cc2nccc(Oc3c(F)cc(NC(=O)N4CC[C@@H](O)C4)c(Cl)c3F)c2cc1C(N)=O [III-32]	> 100 nM	> 10000 nM	> 1000 nM	> 10 nM	> 100 nM	> 100 nM	> 100 nM	> 5000 nM	> 10000 nM	> 10000 nM	–	–	–	–	–
COc1cc2nccc(Oc3c(F)cc(NC(=O)N4CCN(C)CC4)c(Cl)c3F)c2cc1C(N)=O [III-33]	> 100 nM	> 10000 nM	> 1000 nM	> 10 nM	> 100 nM	> 100 nM	> 100 nM	> 5000 nM	> 10000 nM	> 10000 nM	–	–	–	–	–
COc1cc2nccc(Oc3c(F)cc(NC(=O)NC(C)C)c(Cl)c3F)c2cc1C(N)=O [III-34]	> 100 nM	> 10000 nM	> 1000 nM	> 10 nM	> 100 nM	> 100 nM	> 100 nM	> 5000 nM	> 10000 nM	> 10000 nM	–	–	–	–	–
COc1cc2nccc(Oc3c(Cl)cc(NC(=O)NC4CC4)c(F)c3F)c2cc1C(N)=O [III-35]	> 100 nM	> 10000 nM	> 1000 nM	> 10 nM	> 100 nM	> 100 nM	> 100 nM	> 5000 nM	> 10000 nM	> 10000 nM	–	–	–	–	–
COc1cc2nccc(Oc3c(F)c(F)c(NC(=O)NC4CC4)c(F)c3F)c2cc1C(N)=O [III-36]	> 100 nM	> 10000 nM	> 1000 nM	> 10 nM	> 100 nM	> 100 nM	> 100 nM	> 5000 nM	> 10000 nM	> 10000 nM	–	–	–	–	–
C=CC1CC1(NC(=O)Nc1cc(F)c(Oc2ccnc3cc(OC)c(C(N)=O)cc23)c(F)c1Cl)C(=O)NC1CC1 (stereo not drawn) [III-37]	> 100 nM	> 10000 nM	> 1000 nM	> 10 nM	> 100 nM	> 100 nM	> 100 nM	> 5000 nM	> 10000 nM	> 10000 nM	–	–	–	–	–
COc1cc2nccc(Oc3c(F)cc(NC(=O)NC(C)C(F)(F)F)c(Cl)c3F)c2cc1C(N)=O (stereo not drawn) [III-38]	> 100 nM	> 10000 nM	> 1000 nM	> 10 nM	> 100 nM	> 100 nM	> 100 nM	> 5000 nM	> 10000 nM	> 10000 nM	–	–	–	–	–
COc1cc2nccc(Oc3c(F)cc(NC(=O)NC4(C(F)(F)F)CC4)c(Cl)c3F)c2cc1C(N)=O [III-39]	> 100 nM	> 10000 nM	> 1000 nM	> 10 nM	> 100 nM	> 100 nM	> 100 nM	> 5000 nM	> 10000 nM	> 10000 nM	–	–	–	–	–
COc1cc2nccc(Oc3c(F)cc(NC(=O)NC4CC4)c(OC)c3F)c2cc1C(N)=O [III-40]	> 100 nM	> 10000 nM	> 1000 nM	> 10 nM	> 100 nM	> 100 nM	> 100 nM	> 5000 nM	> 10000 nM	> 10000 nM	–	–	–	–	–
COc1cc2nccc(Oc3c(F)cc(NC(=O)NC4CC4)c(Cl)c3OC)c2cc1C(N)=O [III-41]	> 100 nM	> 10000 nM	> 1000 nM	> 10 nM	> 100 nM	> 100 nM	> 100 nM	> 5000 nM	> 10000 nM	> 10000 nM	–	–	–	–	–
COc1cc2nccc(Oc3c(F)cc(NC(=O)NC4CC4)c(Cl)c3OC(C)C)c2cc1C(N)=O [III-42]	> 100 nM	> 10000 nM	> 1000 nM	> 10 nM	> 100 nM	> 100 nM	> 100 nM	> 5000 nM	> 10000 nM	> 10000 nM	–	–	–	–	–
[2H]C([2H])([2H])Oc1c(Cl)c(NC(=O)NC2CC2)cc(F)c1Oc1ccnc2cc(OC)c(C(N)=O)cc12 [III-43]	> 100 nM	> 10000 nM	> 1000 nM	> 10 nM	> 100 nM	> 100 nM	> 100 nM	> 5000 nM	> 10000 nM	> 10000 nM	–	–	–	–	–
COc1cc2nccc(Oc3c(F)cc(NC(=O)NC4CC4)c(Cl)c3OCC(F)F)c2cc1C(N)=O [III-44]	> 100 nM	> 10000 nM	> 1000 nM	> 10 nM	> 100 nM	> 100 nM	> 100 nM	> 5000 nM	> 10000 nM	> 10000 nM	–	–	–	–	–
COc1cc2nccc(Oc3c(F)cc(NC(=O)NC4CC4)c(Cl)c3OC3CC3)c2cc1C(N)=O [III-45]	> 100 nM	> 10000 nM	> 1000 nM	> 10 nM	> 100 nM	> 100 nM	> 100 nM	> 5000 nM	> 10000 nM	> 10000 nM	–	–	–	–	–
COc1cc2nccc(Oc3c(F)cc(NC(=O)NC4CC4)c(N(C)C)c3F)c2cc1C(N)=O [III-46]	> 100 nM	> 10000 nM	> 1000 nM	> 10 nM	> 100 nM	> 100 nM	> 100 nM	> 5000 nM	> 10000 nM	> 10000 nM	–	–	–	–	–
COc1cc2nccc(Oc3c(F)cc(NC(=O)NC4CC4)c(Cl)c3OCC(F)(F)F)c2cc1C(N)=O [III-47]	> 100 nM	> 10000 nM	> 1000 nM	> 10 nM	> 100 nM	> 100 nM	> 100 nM	> 5000 nM	> 10000 nM	> 10000 nM	–	–	–	–	–
COc1cc2nccc(Oc3c(F)cc(NC(=O)NC4CC4)c(Cl)c3N(C)C3CC3)c2cc1C(N)=O [III-48]	> 100 nM	> 10000 nM	> 1000 nM	> 10 nM	> 100 nM	> 100 nM	> 100 nM	> 5000 nM	> 10000 nM	> 10000 nM	–	–	–	–	–
COc1cc2nccc(Oc3c(F)cc(NC(=O)NC4CC4)c(Cl)c3N(C)C)c2cc1C(N)=O [III-49]	> 100 nM	> 10000 nM	> 1000 nM	> 10 nM	> 100 nM	> 100 nM	> 100 nM	> 5000 nM	> 10000 nM	> 10000 nM	–	–	–	–	–
COc1cc2nccc(Oc3c(F)c(F)c(NC(=O)NC4CC4)c(N(C)C)c3F)c2cc1C(N)=O [III-50]	> 100 nM	> 10000 nM	> 1000 nM	> 10 nM	> 100 nM	> 100 nM	> 100 nM	> 5000 nM	> 10000 nM	> 10000 nM	–	–	–	–	–
COc1cc2nccc(Oc3c(F)c(F)c(NC(=O)NC4CC4)c(OC)c3F)c2cc1C(N)=O [III-51]	> 100 nM	> 10000 nM	> 1000 nM	> 10 nM	> 100 nM	> 100 nM	> 100 nM	> 5000 nM	> 10000 nM	> 10000 nM	–	–	–	–	–
